Measurements as given in patent US7935706B2, “Nitrogen-containing heterocycle derivatives substituted with cyclic group” (Shionogi & Co., Ltd., priority 2006, dated 2011).
Read-outs that look alike come from different tables or passages of the source.

Tests used:
[1] = biological target: T1, NMDA receptor (NR1 subunit and NR2B subunit) (Mus musculus, UniProt P35438+Q01097); experiment: Measurement of expression of NMDA receptor and Ca ion influx amount (glutamic acid/glycine-induced, HEK293 cell co-expressing NR1 and NR2B subunits, Fluo-3/AM); assay type: cell-based
T1 construct: expressed in transfected cells; host or cells: HEK293 cells, transient transfection with pcDNA3.1 plasmids
Protocol: Measurement of Expression of NMDA Receptor and Ca Ion Influx Amount
A complementary DNA (cDNA) of a mouse NMDA receptor subunit was transiently introduced into a HEK293 cell and, after 1 day from introduction, change in a glutamic acid/glycine-induced intracelluar Ca amount was measured using a Ca ion reactive fluorescent coloring matter.
The HEK293 cell was cultured, and passaged using a modified Dulbecco's Eagle medium (DMEM, low glucose).
The HEK293 cell (20,000/well) was seeded on a 96-well plate, a NR1 subunit and a NR2B subunit of the NMDA receptor incorporated into the pcDNA3.1 plasmid were transiently introduced into a cell, and the subunits were co-expressed. An introduction amount of a DNA was 0.025 μg in the case of the NR1 subunit, and 0.075 μg in the case of NR2B subunit per well. For the cell after introduction, cell death was inhibited using 50 μM of the NMDA receptor antagonist MK-801.
For adjusting a test compound and washing a cell, Krebs/Ringer/Hepes buffer (KRH, Ca: 5 mM) was used.
After 1 day from introduction, the NMDA receptor antagonist MK-801 was washed out using the KRH buffer, and a Ca ion indication fluorescent coloring matter Fluo-3/AM was made to be taken into the cell. Ca ion influx was induced with 20 μM glutamic acid/2 μM glycine. Change in a fluorescent amount due to Ca ion influx into the cell was measured at excitation of 480 nm using a fluorescent imaging system FDSS 3000.
From a measured value of the test compound, a Ca ion influx inhibition rate (%) was obtained by the following equation, and a dose at which influx is inhibited 50% (IC50) was calculated.
Ca ion influx inhibition rate(%)=100−[(fluorescent amount in the presence of test compound−background fluorescent amount)/(total fluorescent amount−background fluorescent)]×100

NR1/NR2B receptor = biological target: T2, NR1/NR2B receptor (Rattus norvegicus, UniProt P35439+Q00960); experiment: Test of binding with NMDA receptor (NR1/NR2B receptor): competition with [3H]-Ifenprodil on rat cerebral cortex membrane specimen
T2 construct: from tissue; host or cells: rat cerebral cortex membranes (male Slc: Wistar rat)
Protocol: Test of Binding with NMDR Receptor (NR1/NR2B Receptor)
Using Ifenprodil which is an antagonist specific for a NR1/NR2B subtype receptor as a ligand, an experiment of competition between a receptor and a test compound was performed.
Using a male Slc: Wistar rat as an animal, a brain was isolated after decapitation, and a cerebral cortex was fractionated. The cerebral cortex was homogenized with a 20-fold amount of an ice-cooled 50 mM Tris/HCl buffer (pH 7.4), and the homogenate was centrifuged at 4° C. and 27,500×g for 10 minutes. The resulting precipitate was suspended in the same buffer, and this was again centrifuged. This operation was repeated for three times, the resulting precipitate was suspended in a buffer, and this was stored at −80° C. Immediately before an experiment, the frozen suspension was thawed at room temperature, this was centrifuged at 4° C. and 27,500×g for 10 minutes, and the resulting precipitate was suspended in a buffer. Further, the suspension was diluted 10-fold with a buffer, and this was used as a membrane specimen in an experiment. In a binding experiment, to 470 μl of the membrane specimen were added […] of each of test compounds having different concentrations, 10 μl of a labeled ligand [^3H]-Ifenprodil and 10 μl GBR-12909, followed by incubation at an ice temperature for 120 minutes. A concentration of [^3H]-Ifenprodil of the labeled ligand was finally 5 nM, and a concentration of GBR-12909 was finally 3 μM. For measuring a total binding amount, DMSO as a solvent was used and, for measuring a non-specific binding amount, 100 μM Ifenprodil was used. GBR-12909 was added in order to block binding of [^3H]-Ifenprodil to non-polyamine-sensitive site. After incubation, a bound formand a free foramwere separated using Whatman GF/C filter (manufactured by Whatman), and the filter was washed with 2.5 ml ice-cooled buffer four times. The filter was immersed in liquid scintillation (Cryasol I, manufactured by Nacalai tesque), and radioactivity (dpm) was measured with a liquid scintillation counter. From a measured value, a binding inhibition rate (%) was obtained by the following equation, and a dose at which binding is inhibited 50% (IC50) was calculated. A formula of GBR-12909 (vanoxerine) is shown below.
Binding inhibition rate(%)=100−[(binding amount in the presence of test compound−non-specific binding amount)/(total binding amount−non-specific binding amount)]×100

[2] = Ca ion influx induced with 20 μM glutamic acid/2 μM glycine, HEK293 cell with mouse NR1/NR2B, read-out: Ca2+ IC50
[3] = [3H]-Ifenprodil 5 nM, GBR-12909 3 μM, rat cerebral cortex membranes, ice temperature 120 minutes, read-out: NR2B (IC50 μM)
[4] = same binding test, read-out: IC50 (binding with NR1/NR2B receptor)
[5] = same Ca ion influx test, read-out: IC50 (Ca ion influx inhibition)

T1 sequence (Q01097 27-1482, other chains not shown): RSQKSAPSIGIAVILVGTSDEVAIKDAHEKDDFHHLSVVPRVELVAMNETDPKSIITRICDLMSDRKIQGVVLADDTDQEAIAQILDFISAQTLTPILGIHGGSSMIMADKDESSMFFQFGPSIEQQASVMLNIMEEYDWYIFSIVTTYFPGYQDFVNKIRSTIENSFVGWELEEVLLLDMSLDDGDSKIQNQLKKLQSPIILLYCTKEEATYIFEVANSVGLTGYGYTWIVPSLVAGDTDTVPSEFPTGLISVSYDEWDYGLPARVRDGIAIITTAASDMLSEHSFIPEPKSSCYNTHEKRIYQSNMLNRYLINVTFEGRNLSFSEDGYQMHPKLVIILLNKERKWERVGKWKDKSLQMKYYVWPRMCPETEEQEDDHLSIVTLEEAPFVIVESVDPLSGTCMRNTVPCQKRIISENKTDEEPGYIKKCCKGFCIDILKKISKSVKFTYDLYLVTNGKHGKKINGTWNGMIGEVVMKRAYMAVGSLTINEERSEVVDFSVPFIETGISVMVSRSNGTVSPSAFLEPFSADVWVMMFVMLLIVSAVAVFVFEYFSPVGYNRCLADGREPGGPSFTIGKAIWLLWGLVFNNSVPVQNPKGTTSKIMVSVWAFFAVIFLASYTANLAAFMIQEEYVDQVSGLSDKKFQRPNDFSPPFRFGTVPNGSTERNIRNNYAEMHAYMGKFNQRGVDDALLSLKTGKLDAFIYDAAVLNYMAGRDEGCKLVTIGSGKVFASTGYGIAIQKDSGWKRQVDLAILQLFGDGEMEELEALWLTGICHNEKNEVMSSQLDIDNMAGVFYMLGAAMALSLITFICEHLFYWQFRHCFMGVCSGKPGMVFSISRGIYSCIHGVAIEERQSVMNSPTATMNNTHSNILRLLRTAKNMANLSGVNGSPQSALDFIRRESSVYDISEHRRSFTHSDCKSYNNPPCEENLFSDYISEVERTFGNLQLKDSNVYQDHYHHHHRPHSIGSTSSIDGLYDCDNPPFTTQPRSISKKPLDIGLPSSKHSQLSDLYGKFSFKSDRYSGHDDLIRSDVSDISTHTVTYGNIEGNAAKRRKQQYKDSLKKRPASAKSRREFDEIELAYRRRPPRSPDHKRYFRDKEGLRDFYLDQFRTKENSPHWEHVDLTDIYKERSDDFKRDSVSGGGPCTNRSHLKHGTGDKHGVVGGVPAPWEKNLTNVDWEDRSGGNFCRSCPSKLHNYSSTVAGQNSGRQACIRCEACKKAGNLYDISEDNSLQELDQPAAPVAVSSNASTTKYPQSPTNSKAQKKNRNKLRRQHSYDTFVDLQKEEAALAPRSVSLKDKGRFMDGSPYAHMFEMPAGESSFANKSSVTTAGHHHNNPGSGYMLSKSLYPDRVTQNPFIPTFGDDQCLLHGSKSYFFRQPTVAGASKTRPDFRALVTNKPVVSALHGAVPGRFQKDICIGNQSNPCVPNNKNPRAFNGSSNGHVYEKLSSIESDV
T2 sequence (Q00960 27-1482, other chains not shown): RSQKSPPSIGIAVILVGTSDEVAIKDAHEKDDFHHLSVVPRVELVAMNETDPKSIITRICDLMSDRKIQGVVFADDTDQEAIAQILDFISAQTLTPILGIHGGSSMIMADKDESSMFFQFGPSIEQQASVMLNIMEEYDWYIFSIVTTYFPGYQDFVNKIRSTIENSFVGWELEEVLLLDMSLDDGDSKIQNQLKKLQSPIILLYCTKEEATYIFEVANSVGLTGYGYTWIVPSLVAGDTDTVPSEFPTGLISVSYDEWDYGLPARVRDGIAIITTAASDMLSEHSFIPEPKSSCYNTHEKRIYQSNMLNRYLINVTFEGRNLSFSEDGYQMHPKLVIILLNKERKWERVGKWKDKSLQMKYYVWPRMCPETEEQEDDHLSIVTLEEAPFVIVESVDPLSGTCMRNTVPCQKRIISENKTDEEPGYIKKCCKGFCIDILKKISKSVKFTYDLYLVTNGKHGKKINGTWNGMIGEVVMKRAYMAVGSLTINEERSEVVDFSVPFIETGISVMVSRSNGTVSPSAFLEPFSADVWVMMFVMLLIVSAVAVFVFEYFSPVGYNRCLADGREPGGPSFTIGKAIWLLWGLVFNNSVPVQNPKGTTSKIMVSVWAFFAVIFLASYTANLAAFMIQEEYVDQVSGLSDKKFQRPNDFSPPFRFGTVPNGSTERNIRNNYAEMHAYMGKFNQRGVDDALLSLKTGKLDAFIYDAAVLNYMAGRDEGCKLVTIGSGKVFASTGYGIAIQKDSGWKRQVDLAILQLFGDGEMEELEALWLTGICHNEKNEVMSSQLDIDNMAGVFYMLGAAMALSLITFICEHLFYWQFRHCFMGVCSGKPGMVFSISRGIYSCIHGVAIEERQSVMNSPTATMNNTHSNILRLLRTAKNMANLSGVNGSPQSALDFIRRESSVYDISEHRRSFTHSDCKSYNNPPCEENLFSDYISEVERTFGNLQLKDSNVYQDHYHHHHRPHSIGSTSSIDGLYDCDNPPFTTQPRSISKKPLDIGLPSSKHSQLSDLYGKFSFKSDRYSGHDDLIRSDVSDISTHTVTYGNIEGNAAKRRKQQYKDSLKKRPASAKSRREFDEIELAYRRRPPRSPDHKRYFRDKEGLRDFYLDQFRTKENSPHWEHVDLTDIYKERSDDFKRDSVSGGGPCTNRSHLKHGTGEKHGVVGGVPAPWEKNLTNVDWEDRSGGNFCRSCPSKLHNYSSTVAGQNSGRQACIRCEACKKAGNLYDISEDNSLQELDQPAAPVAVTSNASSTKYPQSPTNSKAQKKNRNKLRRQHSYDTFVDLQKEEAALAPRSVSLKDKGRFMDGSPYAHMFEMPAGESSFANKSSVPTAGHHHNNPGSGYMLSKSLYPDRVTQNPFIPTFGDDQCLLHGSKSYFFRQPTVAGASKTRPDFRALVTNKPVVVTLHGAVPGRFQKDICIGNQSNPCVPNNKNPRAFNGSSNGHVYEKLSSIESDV

Row | SMILES | melting point | IC50 [1, 2] [nM] | IC50 (NR1/NR2B receptor; [3]) [µM] | IC50 (NR1/NR2B receptor; [4]) [µM] | IC50 [1, 5] [nM]
1 | O=C(NCC1CCN(c2ccc(C(F)(F)F)cc2)CC1)c1ccc(=O)[nH]c1 [Compound I-3] | 283 to 284 °C (dec.) | – | – | – | –
2 | O=C(NC1CCN(c2ccc(Cl)cc2)CC1)c1ccc(=O)[nH]c1 [Compound I-4] | 274 to 275 °C (dec.) | – | – | – | –
3 | O=C(CC1(O)CCN(c2ccc(C(F)(F)F)cc2)CC1)Nc1ccc2c(c1)CCC(=O)N2 [Compound I-64] | 222 to 223 °C | – | – | – | –
4 | O=C(Nc1ccc2[nH]c(=O)oc2c1)C(=O)N1CCN(c2ccc(Cl)cc2)CC1 [Compound I-73] | – | 8 | 0.015 | – | –
5 | O=C(Nc1ccc2[nH]c(=O)[nH]c2c1)C(=O)N1CCN(c2ccc(C(F)(F)F)cc2)CC1 [Compound I-79] | – | 2 | 0.013 | – | –
6 | O=C(Nc1ccc2[nH]c(=O)[nH]c2c1)C(=O)N1CCN(c2ccc(Cl)cc2)CC1 [Compound I-84] | – | 11 | – | ≤ 0.1 | –
7 | O=C(Nc1ccc2[nH]c(=O)oc2c1)C(=O)N1CCN(c2cccc(Cl)c2)CC1 [Compound I-86] | – | – | – | ≤ 0.1 | ≤ 100
8 | O=C(Nc1ccc2[nH]c(=O)oc2c1)C(=O)N1CCN(c2ccc(Br)cc2)CC1 [Compound I-87] | – | – | 0.012 | – | ≤ 100
9 | O=C(Nc1ccc2[nH]c(=O)sc2c1)C(=O)N1CCN(c2ccc(Cl)cc2)CC1 [Compound I-90] | – | – | 0.026 | – | ≤ 100
10 | O=C(Nc1ccc2[nH]c(=O)oc2c1)C(=O)N1CCN(c2ccc(C(F)(F)F)c(F)c2)CC1 [Compound I-98] | – | – | 0.015 | – | ≤ 100
11 | O=C(Nc1ccc2[nH]c(=O)oc2c1)C(=O)N1CCN(c2ccc(F)c(F)c2)CC1 [Compound I-99] | – | – | – | ≤ 0.1 | ≤ 100
12 | O=C(Nc1ccc2[nH]c(=O)oc2c1)C(=O)N1CCCN(c2ccc(Cl)cc2)CC1 [Compound I-100] | – | 10 | 0.074 | – | –
13 | O=C(Nc1cnc2[nH]c(=O)[nH]c2c1)C(=O)N1CCN(c2ccc(C(F)(F)F)cc2)CC1 [Compound I-101] | – | 1 | 0.011 | – | –
14 | O=C(Nc1ccc2[nH]c(=O)oc2c1)C(=O)N1CCN(c2ccc(C(F)(F)F)cn2)CC1 [Compound I-103] | – | – | 0.018 | – | ≤ 100
15 | O=C(Nc1ccc2[nH]c(=O)oc2c1)C(=O)N1CCN(c2ccc(Cl)c(Cl)c2)CC1 [Compound I-104] | – | 1 | 0.016 | – | –
16 | O=C(Nc1cnc2[nH]c(=O)oc2c1)C(=O)N1CCN(c2ccc(Cl)c(Cl)c2)CC1 [Compound I-105] | – | 10 | 0.045 | – | –
17 | O=C(Nc1cnc2[nH]c(=O)oc2c1)C(=O)N1CCN(c2ccc(C(F)(F)F)c(F)c2)CC1 [Compound I-107] | – | – | – | ≤ 0.1 | ≤ 100
18 | O=C(Nc1ccc2[nH]c(=O)oc2c1)C(=O)N1CCN(c2ccc(Cl)c(F)c2)CC1 [Compound I-109] | – | 1 | 0.012 | – | –
19 | O=C(Nc1cnc2[nH]c(=O)oc2c1)C(=O)N1CCN(c2ccc(Cl)c(F)c2)CC1 [Compound I-113] | – | 34 | 0.034 | – | –

Row | SMILES | melting point | IC50 [1, 2] [nM] | IC50 (NR1/NR2B receptor; [3]) [µM] | IC50 (NR1/NR2B receptor; [4]) [µM] | IC50 [1, 5] [nM]
20 | O=C(Nc1ccc2[nH]c(=O)oc2c1)C(=O)N1CCCN(c2ccc(C(F)(F)F)c(F)c2)CC1 [Compound I-114] | – | – | – | ≤ 0.1 | ≤ 100
21 | O=C(CC1(O)CCN(c2ccc(C(F)(F)F)c(F)c2)CC1)Nc1ccc2[nH]c(=O)oc2c1 [Compound I-116] | – | 49 | 0.049 | – | –
22 | O=C(Nc1ccc2[nH]c(=O)oc2c1)C(=O)N1CCCN(c2ccc(Cl)c(F)c2)CC1 [Compound I-154] | – | 4 | 0.044 | – | –
23 | C[C@@H]1CN(C(=O)C(=O)Nc2ccc3[nH]c(=O)oc3c2)CCN1c1ccc(Cl)cc1 [Compound I-177] | – | – | 0.059 | – | ≤ 100
24 | C[C@@H]1CN(c2ccc(Cl)cc2)CCN1C(=O)C(=O)Nc1ccc2[nH]c(=O)oc2c1 [Compound I-178] | – | – | 0.029 | – | ≤ 100
25 | O=C(C=C1CCN(c2ccc(C(F)(F)F)c(F)c2)CC1)Nc1ccc2[nH]c(=O)oc2c1 [Compound I-180] | – | 13 | 0.062 | – | –
26 | O=C(C=C1CCN(c2ccc(Cl)c(Cl)c2)CC1)Nc1ccc2[nH]c(=O)oc2c1 [Compound I-184] | – | 11 | 0.041 | – | –
27 | O=C(CC1(O)CCN(c2ccc(Cl)c(Cl)c2)CC1)Nc1ccc2[nH]c(=O)oc2c1 [Compound I-187] | – | 14 | 0.054 | – | –
28 | O=C(NCCC1CCN(c2ccc(Cl)c(Cl)c2)CC1)c1ccc(=O)[nH]c1 [Compound I-196] | – | 15 | 0.023 | – | –
29 | C[C@@H]1CN(C(=O)C(=O)Nc2ccc3[nH]c(=O)oc3c2)CCN1c1ccc(Cl)c(F)c1 [Compound I-207] | – | – | – | ≤ 0.1 | ≤ 100
30 | O=C(Nc1ccc2[nH]c(=O)oc2c1)C(=O)N1CCN(c2ccc(OC(F)(F)F)cc2)CC1 [Compound I-211] | – | – | – | ≤ 0.1 | ≤ 100
31 | C[C@@H]1CN(c2ccc(F)c(Cl)c2)CCN1C(=O)C(=O)Nc1ccc2[nH]c(=O)oc2c1 [Compound I-221] | – | – | – | ≤ 0.1 | ≤ 100
32 | O=C(C=C1CCN(c2ccc(OC(F)(F)F)cc2)CC1)Nc1ccc2[nH]c(=O)oc2c1 [Compound I-225] | – | – | – | ≤ 0.1 | ≤ 100
33 | C[C@@H]1CN(c2ccc(C(F)(F)F)cn2)CCN1C(=O)C(=O)Nc1ccc2[nH]c(=O)oc2c1 [Compound I-227] | – | – | – | ≤ 0.1 | ≤ 100
34 | C[C@@H]1CN(C(=O)C(=O)Nc2ccc3[nH]c(=O)oc3c2)CCN1c1ccc(Cl)cn1 [Compound I-228] | – | – | – | ≤ 0.1 | ≤ 100
35 | O=C(NCCC1CCN(c2ccc(OC(F)(F)F)cc2)CC1)c1ccc(=O)[nH]c1 [Compound I-230] | – | – | – | ≤ 0.1 | ≤ 100
36 | O=C(Nc1ccc2[nH]c(=O)oc2c1)C(=O)N1CCN(c2ccc(OC(F)F)cc2)CC1 [Compound I-233] | – | – | – | ≤ 0.1 | ≤ 100
37 | O=C(C=C1CCN(c2ccc(OC(F)F)cc2)CC1)Nc1ccc2[nH]c(=O)oc2c1 [Compound I-237] | – | – | – | ≤ 0.1 | ≤ 100
38 | COc1ccc(N2CCC(=CC(=O)Nc3ccc4[nH]c(=O)oc4c3)CC2)cc1F [Compound I-238] | – | – | – | ≤ 0.1 | ≤ 100
